Organism: Rattus norvegicus
Assay: DrugMatrix - Regimen: Daily Repeat
Type: toxicity, organism-based, Sprague-Dawley
Design: regimen Daily Repeat, gender Male, age 6-8 weeks
Conditions: in vivo, po, route oral GAVAGE, vehicle 100 % WATER; for ABSOLUTE BASOPHIL / ABSOLUTE EOSINOPHIL / ABSOLUTE LYMPHOCYTE / ABSOLUTE MONOCYTE / ABSOLUTE SEGMENTED NEUTROPHIL / BASOPHIL / EOSINOPHIL / ERYTHROCYTE COUNT / HEMATOCRIT / HEMOGLOBIN / LEUKOCYTE COUNT / LYMPHOCYTE / MEAN CORPUSCULAR HEMOGLOBIN / MEAN CORPUSCULAR HEMOGLOBIN CONCENTRATION / MEAN CORPUSCULAR VOLUME / MONOCYTE / NEUTROPHIL / NUCLEATED RED BLOOD CELLS / PLATELET COUNT: tissue Blood; for ALANINE AMINOTRANSFERASE / ALBUMIN / ALKALINE PHOSPHATASE / ASPARTATE AMINOTRANSFERASE / BLOOD UREA NITROGEN / CARBON DIOXIDE / CHLORIDE / CHOLESTEROL / CREATINE PHOSPHOKINASE / CREATININE / GLUCOSE / LACTATE DEHYDROGENASE / LIPASE / PHOSPHORUS / POTASSIUM / SODIUM / TOTAL BILIRUBIN / TOTAL PROTEIN / URIC ACID: tissue Plasma
[1] = 8 mg/kg, 120 h, dose level Low, time 5 day
[2] = 100 mg/kg, 72 h, dose level High, time 3 day
[3] = 100 mg/kg, 120 h, dose level High, time 5 day

SMILES: CCN(C(C)=O)c1cccc(-c2ccnc3c(C#N)cnn23)c1 [ZALEPLON]
- ABSOLUTE BASOPHIL [1]: 0 CELLS/uL
- ABSOLUTE EOSINOPHIL [1]: 56.67 CELLS/uL
- ABSOLUTE LYMPHOCYTE [1]: 12514.33 CELLS/uL
- ABSOLUTE MONOCYTE [1]: 39.33 CELLS/uL
- ABSOLUTE SEGMENTED NEUTROPHIL [1]: 1223 CELLS/uL
- BASOPHIL [1]: 0%
- EOSINOPHIL [1]: 0.33%
- ERYTHROCYTE COUNT [1]: 5.65 x10E6/uL
- HEMATOCRIT [1]: 36.27%
- HEMOGLOBIN [1]: 14.43 G/DL
- LEUKOCYTE COUNT [1]: 13.83 x10E3/uL
- LYMPHOCYTE [1]: 90.67%
- MEAN CORPUSCULAR HEMOGLOBIN [1]: 25.57 pg
- MEAN CORPUSCULAR HEMOGLOBIN CONCENTRATION [1]: 39.8 G/DL
- MEAN CORPUSCULAR VOLUME [1]: 64.17 fL
- MONOCYTE [1]: 0.33%
- NEUTROPHIL [1]: 8.67%
- NUCLEATED RED BLOOD CELLS [1]: 0.33 /100WBC
- PLATELET COUNT [1]: 1230.33 x10E3/uL
- ALANINE AMINOTRANSFERASE [1]: 55.33 u/L
- ALBUMIN [1]: 4.17 G/DL
- ALKALINE PHOSPHATASE [1]: 388.67 u/L
- ASPARTATE AMINOTRANSFERASE [1]: 80.67 u/L
- BLOOD UREA NITROGEN [1]: 14.33 mg/dL
- CARBON DIOXIDE [1]: 31.67 mmol/L
- CHLORIDE [1]: 101.67 MEQ/L
- CHOLESTEROL [1]: 66.33 mg/dL
- CREATINE PHOSPHOKINASE [1]: 267.33 u/L
- CREATININE [1]: 0.15 mg/dL
- GLUCOSE [1]: 126.67 mg/dL
- LACTATE DEHYDROGENASE [1]: 359 u/L
- LIPASE [1]: 11.33 u/L
- PHOSPHORUS [1]: 11.67 mg/dL
- POTASSIUM [1]: 6.04 MEQ/L
- SODIUM [1]: 144.43 MEQ/L
- TOTAL BILIRUBIN [1]: 0.17 mg/dL
- TOTAL PROTEIN [1]: 6 G/DL
- URIC ACID [1]: 1.4 mg/dL
- ABSOLUTE BASOPHIL [2]: 0 CELLS/uL
- ABSOLUTE EOSINOPHIL [2]: 0 CELLS/uL
- ABSOLUTE LYMPHOCYTE [2]: 12984 CELLS/uL
- ABSOLUTE MONOCYTE [2]: 96.67 CELLS/uL
- ABSOLUTE SEGMENTED NEUTROPHIL [2]: 1352.67 CELLS/uL
- BASOPHIL [2]: 0%
- EOSINOPHIL [2]: 0%
- ERYTHROCYTE COUNT [2]: 5.72 x10E6/uL
- HEMATOCRIT [2]: 36.9%
- HEMOGLOBIN [2]: 14 G/DL
- LEUKOCYTE COUNT [2]: 14.43 x10E3/uL
- LYMPHOCYTE [2]: 90%
- MEAN CORPUSCULAR HEMOGLOBIN [2]: 24.5 pg
- MEAN CORPUSCULAR HEMOGLOBIN CONCENTRATION [2]: 37.97 G/DL
- MEAN CORPUSCULAR VOLUME [2]: 64.5 fL
- MONOCYTE [2]: 0.67%
- NEUTROPHIL [2]: 9.33%
- NUCLEATED RED BLOOD CELLS [2]: 0 /100WBC
- PLATELET COUNT [2]: 1335.67 x10E3/uL
- ALANINE AMINOTRANSFERASE [2]: 82.33 u/L
- ALBUMIN [2]: 4.13 G/DL
- ALKALINE PHOSPHATASE [2]: 449.67 u/L
- ASPARTATE AMINOTRANSFERASE [2]: 80 u/L
- BLOOD UREA NITROGEN [2]: 11.67 mg/dL
- CARBON DIOXIDE [2]: 33.33 mmol/L
- CHLORIDE [2]: 106 MEQ/L
- CHOLESTEROL [2]: 71 mg/dL
- CREATINE PHOSPHOKINASE [2]: 245.67 u/L
- CREATININE [2]: 0.2 mg/dL
- GLUCOSE [2]: 139 mg/dL
- LACTATE DEHYDROGENASE [2]: 132.33 u/L
- LIPASE [2]: 10 u/L
- PHOSPHORUS [2]: 11.2 mg/dL
- POTASSIUM [2]: 5.9 MEQ/L
- SODIUM [2]: 144.73 MEQ/L
- TOTAL BILIRUBIN [2]: 0.17 mg/dL
- TOTAL PROTEIN [2]: 5.93 G/DL
- URIC ACID [2]: 1.4 mg/dL
- ABSOLUTE BASOPHIL [3]: 0 CELLS/uL
- ABSOLUTE EOSINOPHIL [3]: 0 CELLS/uL
- ABSOLUTE LYMPHOCYTE [3]: 12362.67 CELLS/uL
- ABSOLUTE MONOCYTE [3]: 101.33 CELLS/uL
- ABSOLUTE SEGMENTED NEUTROPHIL [3]: 1236 CELLS/uL
- BASOPHIL [3]: 0%
- EOSINOPHIL [3]: 0%
- ERYTHROCYTE COUNT [3]: 6.29 x10E6/uL
- HEMATOCRIT [3]: 38.53%
- HEMOGLOBIN [3]: 15 G/DL
- LEUKOCYTE COUNT [3]: 13.7 x10E3/uL
- LYMPHOCYTE [3]: 89.33%
- MEAN CORPUSCULAR HEMOGLOBIN [3]: 23.83 pg
- MEAN CORPUSCULAR HEMOGLOBIN CONCENTRATION [3]: 38.93 G/DL
- MEAN CORPUSCULAR VOLUME [3]: 61.3 fL
- MONOCYTE [3]: 0.67%
- NEUTROPHIL [3]: 10%
- NUCLEATED RED BLOOD CELLS [3]: 0 /100WBC
- PLATELET COUNT [3]: 1219.33 x10E3/uL
- ALANINE AMINOTRANSFERASE [3]: 61.67 u/L
- ALBUMIN [3]: 4.3 G/DL
- ALKALINE PHOSPHATASE [3]: 331.33 u/L
- ASPARTATE AMINOTRANSFERASE [3]: 91 u/L
- BLOOD UREA NITROGEN [3]: 14.67 mg/dL
- CARBON DIOXIDE [3]: 28.67 mmol/L
- CHLORIDE [3]: 102 MEQ/L
- CHOLESTEROL [3]: 83.33 mg/dL
- CREATINE PHOSPHOKINASE [3]: 520 u/L
- CREATININE [3]: 0.17 mg/dL
- GLUCOSE [3]: 157 mg/dL
- LACTATE DEHYDROGENASE [3]: 238.67 u/L
- LIPASE [3]: 11 u/L
- PHOSPHORUS [3]: 11.7 mg/dL
- POTASSIUM [3]: 6.45 MEQ/L
- SODIUM [3]: 144.67 MEQ/L
- TOTAL BILIRUBIN [3]: 0.2 mg/dL
- TOTAL PROTEIN [3]: 6.53 G/DL
- URIC ACID [3]: 2.47 mg/dL

Reference: ChEMBL document CHEMBL3885881, “DrugMatrix”
